Test results reported in patent publication US9169203B2, “Sulfoxide-based surfactants” (Novus International Inc., priority 2012, dated 2015).

How the values were obtained:
[1] = Critical micelle concentration (CMC), Wilhelmy plate method; assay type: physicochemical; details: in water at 25° C. and atmospheric pressure
Protocol: (§1) To determine whether the sulfoxide-based compounds synthesized in Examples 1-9 had surfactant properties, the critical micelle concentration (CMC), surface tension, and solubility were determined. The Wilhelmy plate method was used to determine the equilibrium surface or interfacial tension at an air-liquid interface. A Cahn DCA 322 high-sensitivity balance was used to perform the measurement. Glass slides manufactured by Corning with a width of 22 mm and thickness of 0.1 mm were used as probes; the motor speed was set to be 160 μm/sec. […] The measured force was converted to surface tension using the Wilhelmy equation. The CMC was calculated according to standard procedures.
(§2) The following compounds were tested: (1) hexyl 2-hydroxy-4-[…] (R6SO); (2) octyl 2-hydroxy-4-(methylsulfinyl)butanoate (R8SO); (3) a mixture of 70 wt % R8SO and 30 wt % decyl 2-hydroxy-4-(methylsulfinyl)butanoate (R10SO); (4) a mixture of 70 wt % R8SO and 30 wt % dodecyl 2-hydroxy-4-(methylsulfinyl)butanoate (R12SO); (5) 2-hydroxy-4-(methylsulfinyl)-N-octylbutanamide (R8NHSO); (6) a mixture of 60 wt % R8NHSO and 40 wt % 2-hydroxy-4-(methylsulfinyl)-N-decylbutanamide (R10NHSO); (7) a mixture of 75 wt % R8NHSO and 25 wt % 2-hydroxy-4-(methylsulfinyl)-N-dodecylbutanamide (R12NHSO); as well as the commercially available nonionic surfactants (8) Igepal® CO-630, a branched nonylphenol ethoxylate, and two alkyl ethylene oxides, (9) hexaethylene glycol monododecyl ether (C12E6) and (10) hexaethylene glycol monodecyl ether (C10E6).

[2] = Surface tension at air-liquid interface at CMC, Wilhelmy plate method; assay type: physicochemical; details: 25° C. and atmospheric pressure
Protocol: as §1, §2

[3] = Solubility in water; assay type: physicochemical; details: in water at 25° C. and atmospheric pressure
Protocol: as §1, §2

[4] = tested on: fresh water algae; experiment: Fresh water algae growth inhibition test (OECD 201); assay type: cell-based; details: at 72 hr
Protocol: (§3) The potential hazards of the sulfoxide-based compounds were examined by evaluating the toxicity of R8SO in three standard bioassays (i.e., fresh water algae growth inhibition test, Daphnia acute immobilization test, and fresh water fish acute toxicity test).
The fresh water algae growth inhibition test was conducted according to OECD 201 guidelines. Briefly, exponentially growing fresh water algae were exposed to several concentrations of the test substances in batch cultures over a period of 72 hours. The cultures were allowed unrestricted exponential growth under nutrient sufficient conditions and continuous fluorescent illumination. Three replicates at each test concentration were used. Growth was monitored over time and compared to the average growth of control cultures (with no test substances). Growth and growth inhibition are quantified from measurements of the algal biomass as a function of time.

[5] = tested on: Daphnia; experiment: Daphnia acute immobilization test (OECD 202); assay type: in vivo; details: at 48 hr
Protocol: as §3
The Daphnia acute immobilization test was performed according to the OECD 202 guidelines. Briefly, young daphnids, ages less than 24 hours at the start of the test, were exposed to the test substances at a range of concentrations for a period of 48 hours. Generally, at least 20 animals, preferably divided into four groups of five animals each, were tested for each test concentration and for the controls (i.e., no test substance). The Daphnia were not fed during the test. At least 2 mL of test solution were provided for each animal. Temperatures were held between 18 and 22° C., and for each single test the temperature was within ±1° C. Immobilization was recorded at 24 hours and 48 hours, and compared to control values. Those animals that could not swim within 15 seconds after gentle agitation of the test container were considered to be immobile.

[6] = tested on: fresh water fish (i.e., fathead minnows); experiment: Fresh water fish acute toxicity test (OECD 203); assay type: in vivo; details: at 96 hr
Protocol: as §3
The fresh water fish acute toxicity test was conduced according to OECD 203 guidelines. For this test, fresh water fish (i.e., fathead minnows) were exposed to a series of concentrations of the test substances for a period of 96 hours. At least seven fishes were used at each test concentration and in the controls. Mortalities were recorded at 24, 48, 72, and 96 hours. Fish were considered dead if there was no visible movement (e.g. gill movements) and if touching of the caudal peduncle produced no reaction. The mortality counts were used to determine LC50, the concentration that killed 50% of the fish.

Row | CMC [1] | Surface Tension at CMC [2] | Solubility [3] | SMILES | EC50 (50 percent reduction in growth relative to the control) [4] | EC50 (concentration at which 50% of the animals were immobilized) [5] | LC50 (concentration that killed 50% of the fish) [6]
1 | 0.087 mM | 41 mN/m | – | CCCCCCCCCCCCOCCOCCOCCOCCOCCOCCO [Example C12E6, hexaethylene glycol monododecyl ether, reference compound] | – | – | –
2 | 120.9 mM | 33 mN/m | >50% (wt/wt total) | CCCCCCOC(=O)C(O)CC[S+](C)[O-] (stereo not shown) [Example R6SO, hexyl 2-hydroxy-4-(methylsulfinyl)butanoate] | – | – | –
3 | 0.90 mM | 42 mN/m | – | CCCCCCCCCCOCCOCCOCCOCCOCCOCCO [Example C10E6, hexaethylene glycol monodecyl ether, reference compound] | – | – | –
4 | 10.3 mM | 29 mN/m | >50% (wt/wt total) | CCCCCCCCNC(=O)C(O)CC[S+](C)[O-] (stereo not shown) [Example R8NHSO, 2-hydroxy-4-(methylsulfinyl)-N-octylbutanamide] | – | – | –

Row | SMILES | CMC [1] | Surface Tension at CMC [2] | Solubility [3] | EC50 (50 percent reduction in growth relative to the control) [4] | EC50 (concentration at which 50% of the animals were immobilized) [5] | LC50 (concentration that killed 50% of the fish) [6]
5 | CCCCCCCCOC(=O)C(O)CC[S+](C)[O-] (stereo not shown) [Example R8SO, octyl 2-hydroxy-4-(methylsulfinyl)butanoate] | 11.7 mM | 29 mN/m | >50% (wt/wt total) | 175 ppm | 79 ppm | 148 ppm
